Measured values taken from patent US9469652B2, “ERK inhibitors” (Eli Lilly and Company, priority 2014, dated 2016).

Key:
ERK2 = molecular target: T1, ERK2 (Homo sapiens, UniProt P28482); assay: ERK2 Kinase Assay (TR-FRET); type: biochemical; conditions: Abs_IC50, ATP 10 μM, GFP-ATF2 substrate; ±0.24, n=7
T1 construct: purchased Invitrogen PV3595B
Method: The purpose of this assay is to measure the ability of compounds to inhibit ERK2 kinase activity. Perform the ERK2 kinase assay in vitro using a TR-FRET assay. Start all reactions (12.5 μL) by adding 5 μL of ERK2 enzyme (Invitrogen, #PV3595B, final conc 50 ng/mL) plus substrate GFP-ATF2 (Invitrogen, #PV4445, final conc 0.2 μM), 5 μL of ATP solution (Invitrogen, #PV3227, final conc 10 μM) prepared in kinase buffer (50 mM Hepes pH 7.4, 5 mM MgCl2, 0.1 mM EGTA, 0.01% Triton X-100, 1 mM DTT) and 2.5 μL of testing compounds in DMSO solution (final 4%, v/v) in a 384-well PROXIPLATE™ (Perkin Elmer, #GRN6260). Incubate reactions at room temperature for 60 minutes. Stop reactions by addition of 12.5 μL of stop buffer (10 mM EDTA, 2 nM Tb-anti-pATF2 (pThr71) antibody, Invitrogen, #PV4448) in TR-FRET dilution buffer (Invitrogen, #PV3574). Incubate the plates at room temperature for an additional 60 minutes and read ON ENVISION® (PerkinElmer) plate reader at the excitation wavelength of 340 nm Calculate a TR-FRET ratio by dividing the GFP acceptor emission signal (at 520 nm) by the Tb donor emission signal (at 495 nm). Calculate percent inhibition using compound wells relative to on-plate Max (DMSO control) and Min (No enzyme added) control wells TR-FRET ratio data {% inhibition=100−[(test compound−median Min)/(median Max−median Min)×100]}. […]

ERK1 = molecular target: T2, ERK1 (Homo sapiens, UniProt P27361); assay: ERK1 Kinase Assay (TR-FRET); type: biochemical; conditions: Abs_IC50, ATP 10 μM, GFP-ATF2 substrate; ±0.20, n=7
T2 construct: purchased Invitrogen PR5254B
T2 sequence (P27361 whole entry): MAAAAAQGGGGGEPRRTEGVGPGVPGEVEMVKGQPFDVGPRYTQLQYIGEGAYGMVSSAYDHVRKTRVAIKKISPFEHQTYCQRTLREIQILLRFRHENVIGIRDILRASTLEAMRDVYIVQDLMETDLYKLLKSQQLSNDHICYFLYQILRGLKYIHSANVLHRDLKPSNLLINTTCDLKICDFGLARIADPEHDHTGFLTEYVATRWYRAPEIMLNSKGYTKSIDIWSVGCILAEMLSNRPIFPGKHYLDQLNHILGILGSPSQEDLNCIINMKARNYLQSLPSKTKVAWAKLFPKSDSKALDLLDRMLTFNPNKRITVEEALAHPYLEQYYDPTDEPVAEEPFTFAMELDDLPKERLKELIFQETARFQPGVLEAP
Method: The purpose of this assay is to measure the ability of compounds to inhibit ERK1 kinase activity. Perform the ERK1 kinase assay in vitro using a TR-FRET assay. Start reactions (12.5 μL) by adding 5 μL of ERK1 enzyme (Invitrogen, #PR5254B, final concentration 100 ng/mL) plus substrate GFP-ATF2 (Invitrogen, #PV4445, final concentration 0.2 μM), 5 μL of ATP solution (Invitrogen, #PV3227, final concentration 10 μM) prepared in kinase buffer (50 mM Hepes pH 7.4, 5 mM MgCl2, 0.1 mM EGTA, 0.01% Triton X-100, 1 mM DTT) and 2.5 μL of testing compounds in DMSO solution (final 4%, v/v) in a 384-well PROXIPLATE™ (Perkin Elmer, #GRN6260). Incubate the reaction mixture at room temperature for 60 minutes. Stop the reaction by addition of 12.5 μL of stop buffer (10 mM EDTA, 2 nM Tb-anti-pATF2 (pThr71) antibody, Invitrogen, #PV4448) in TR-FRET dilution buffer (Invitrogen, #PV3574). Incubate the plates at room temperature for an additional 60 minutes and read on an ENVISION® (PerkinElmer) plate reader at the excitation wavelength 340 nm Calculate the TR-FRET ratio by dividing the GFP acceptor emission signal (at 520 nm) by the Tb donor emission signal (at 495 nm). Calculate percent inhibition using compound treated wells relative to on-plate Max (DMSO control) and Min (No enzyme added) control wells TR-FRET ratio data {% inhibition=100−[(test compound−median Min)/(median Max−median Min)×100]}. […]

T1 sequence (P28482 whole entry): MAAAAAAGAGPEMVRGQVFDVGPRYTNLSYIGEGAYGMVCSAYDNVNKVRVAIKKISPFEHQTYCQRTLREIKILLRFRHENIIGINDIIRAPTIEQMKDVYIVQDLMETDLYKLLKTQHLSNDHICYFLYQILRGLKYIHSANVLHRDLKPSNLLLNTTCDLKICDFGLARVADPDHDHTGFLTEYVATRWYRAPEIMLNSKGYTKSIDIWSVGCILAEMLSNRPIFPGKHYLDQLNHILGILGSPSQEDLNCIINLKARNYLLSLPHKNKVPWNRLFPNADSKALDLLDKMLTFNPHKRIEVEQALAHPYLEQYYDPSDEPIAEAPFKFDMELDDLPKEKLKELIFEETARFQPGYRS

In the case of Cn1nccc1Nc1nccc(-c2cc3c(s2)C(C)(C)N(CCN2CCOCC2)C3=O)n1 [Example 1, 6,6-Dimethyl-2-{2-[(1-methyl-1H-pyrazol-5-yl)amino]pyrimidin-4-yl}-5-[2-(morpholin-4-yl)ethyl]-5,6-dihydro-4H-thieno[2,3-c]pyrrol-4-one], the IC50 (ERK2) is reported as 5.24 nM and the IC50 (ERK1) is reported as 4.86 nM.
